Converted amounts (≈) assume the structure as drawn.
Legend:
Assay in all cases: Antifungal susceptibility testing (minimum inhibitory concentration), soyabean casein digest broth
Assay type in all cases: cell-based
[1] = system: A. niger; conditions: Aspergillus niger; end points after 48 hours, visually / spectrophotometer; NI till x = no inhibition up to x; read-out: Activity against organisms In μg/ml, A. niger (minimum inhibitory concentration)
Procedure: (§1) In vitro evaluation of antifungal activity can be performed by determining the minimum inhibitory concentration. Anti-fungal susceptibility testing of these anti-fungal compounds was done by conventional method using soyabean casein digest broth. Known anti-fungal agents like Fluconazole and amphotericin-B were used as positive control. End points were determined after 48 hours visually and by using Spectrophotometer wherever necessary. Different dilutions were tried and the set of experiments.

[2] = system: F. proliferatum; conditions: Fusarium proliferatum; end points after 48 hours, visually / spectrophotometer; NI till x = no inhibition up to x; read-out: Activity against organisms In μg/ml, F. proliferatum (minimum inhibitory concentration)
Procedure: as §1

[3] = system: C. albicans; conditions: Candida albicans; end points after 48 hours, visually / spectrophotometer; NI till x = no inhibition up to x; read-out: Activity against organisms In μg/ml, C. albicans (minimum inhibitory concentration)
Procedure: as §1

SMILES | MIC [1] | MIC [2] | MIC [3]
O=C1OC(COC(=O)c2ccccc2)C=C1c1ccc(Cl)c(Cl)c1 (stereo not drawn) [1AA, 3,4-dichlorophenyl-5-benzoyloxymethyl-2H,5H-furan-2-one] | 2 µg/mL (≈ 5.51 µM) | 1 µg/mL (≈ 2.75 µM) | 4 µg/mL (≈ 11 µM)
O=C1OC(COC(=O)c2ccccc2)C=C1c1cccc(Cl)c1 (stereo not drawn) [1AB, 3-chlorophenyl-5-benzoyloxymethyl-2H,5H-furan-2-one] | 2 µg/mL (≈ 6.08 µM) | 0.5 µg/mL (≈ 1.52 µM) | 2 µg/mL (≈ 6.08 µM)
O=C1OC(COC(=O)c2ccccc2)C=C1c1cccc(Br)c1 (stereo not drawn) [1AC, 3-bromophenyl-5-benzoyloxymethyl-2H,5H-furan-2-one] | 4 µg/mL (≈ 10.7 µM) | 0.5 µg/mL (≈ 1.34 µM) | 2 µg/mL (≈ 5.36 µM)
O=C1OC(COC(=O)c2ccccc2)C=C1c1cccc(F)c1 (stereo not drawn) [1AD, 3-fluorophenyl-5-benzoyloxymethyl-2H,5H-furan-2-one] | 1 to 2 µg/mL (≈ 3.2 to 6.4 µM) | 1 to 2 µg/mL (≈ 3.2 to 6.4 µM) | 1 to 2 µg/mL (≈ 3.2 to 6.4 µM)
COc1ccc(C2=CC(COC(=O)c3ccccc3)OC2=O)cc1Br (stereo not drawn) [1AE, 3-bromo-4-methoxyphenyl-5-benzoyloxymethyl-2H,5H-furan-2-one] | > 2 µg/mL | > 2 µg/mL | > 2 µg/mL
CC(=O)OCC1C=C(c2cccc(Br)c2)C(=O)O1 (stereo not drawn) [1BC, 3-bromophenyl-5-acetxymethyl-2H,5H-furan-2-one] | 4 µg/mL (≈ 12.9 µM) | 2 µg/mL (≈ 6.43 µM) | 2 µg/mL (≈ 6.43 µM)
CC(=O)OCC1C=C(c2cccc(F)c2)C(=O)O1 (stereo not drawn) [1BD, 3-fluorophenyl-5-acetxymethyl-2H,5H-furan-2-one] | 1 to 2 µg/mL (≈ 4 to 7.99 µM) | 1 to 2 µg/mL (≈ 4 to 7.99 µM) | 1 to 2 µg/mL (≈ 4 to 7.99 µM)
COc1ccc(C2=CC(COC(C)=O)OC2=O)cc1Br (stereo not drawn) [1BE, 3-bromo-4-methoxyphenyl-5-acetoxymethyl-2H,5H-furan-2-one] | 4 to 8 µg/mL (≈ 11.7 to 23.4 µM) | 8 to 16 µg/mL (≈ 23.4 to 46.9 µM) | 2 to 4 µg/mL (≈ 5.86 to 11.7 µM)
C=CCC(=O)OCC1C=C(c2ccc(Cl)c(Cl)c2)C(=O)O1 (stereo not drawn) [1CA, 3,4-dichlorophenyl-5-allyloyloxymethyl-2H,5H-furan-2-one] | 1 µg/mL (≈ 3.06 µM) | 1 µg/mL (≈ 3.06 µM) | 2 µg/mL (≈ 6.11 µM)
C=CCC(=O)OCC1C=C(c2cccc(Cl)c2)C(=O)O1 (stereo not drawn) [1CB, 3-chlorophenyl-5-allyloyloxymethyl-2H,5H-furan-2-one] | 8 µg/mL (≈ 27.3 µM) | 2 µg/mL (≈ 6.83 µM) | 4 µg/mL (≈ 13.7 µM)
C=CCC(=O)OCC1C=C(c2cccc(Br)c2)C(=O)O1 (stereo not drawn) [1CC, 3-bromophenyl-5-allyloyloxymethyl-2H,5H-furan-2-one] | 8 µg/mL (≈ 23.7 µM) | 2 µg/mL (≈ 5.93 µM) | 4 µg/mL (≈ 11.9 µM)
C=CCC(=O)OCC1C=C(c2ccc(OC)c(Br)c2)C(=O)O1 (stereo not drawn) [1CE, 3-bromo-4-methoxyphenyl-5-allyloyloxymethyl-2H,5H-furan-2-one] | > 8 µg/mL | > 8 µg/mL | 2 to 4 µg/mL (≈ 5.45 to 10.9 µM)
O=C1OC(COC(=O)c2cccs2)C=C1c1ccc(Cl)c(Cl)c1 (stereo not drawn) [1DA, 4-(3,4-dichlorophenyl)-5-oxo-2,5-dihydrofuran-2-ylmethyl thiophene-2-carboxylate] | 1 µg/mL (≈ 2.71 µM) | 2 µg/mL (≈ 5.42 µM) | 2 µg/mL (≈ 5.42 µM)
O=C1OC(COC(=O)c2cccs2)C=C1c1cccc(Cl)c1 (stereo not drawn) [1DB, 4-(3-chlorophenyl)-5-oxo-2,5-dihydrofuran-2-ylmethyl thiophene-2-carboxylate] | 4 µg/mL (≈ 11.9 µM) | 1 µg/mL (≈ 2.99 µM) | 2 µg/mL (≈ 5.97 µM)
O=C1OC(COC(=O)c2cccs2)C=C1c1cccc(Br)c1 (stereo not drawn) [1DC, 4-(3-bromophenyl)-5-oxo-2,5-dihydrofuran-2-ylmethyl thiophene-2-carboxylate] | 8 µg/mL (≈ 21.1 µM) | 2 µg/mL (≈ 5.27 µM) | 2 µg/mL (≈ 5.27 µM)
COc1ccc(C2=CC(COC(=O)c3cccs3)OC2=O)cc1Br (stereo not drawn) [1DE, 4-(3-bromo-4-methoxyphenyl)-5-oxo-2,5-dihydrofuran-2-ylmethyl thiophene-2-carboxylate] | > 2 µg/mL | > 2 µg/mL | > 2 µg/mL
O=C1OC(COC(=O)c2ccsc2)C=C1c1ccc(Cl)c(Cl)c1 (stereo not drawn) [1EA, 4-(3,4-dichlorophenyl)-5-oxo-2,5-dihydrofuran-2-ylmethyl thiophene-3-carboxylate] | 1 µg/mL (≈ 2.71 µM) | 2 µg/mL (≈ 5.42 µM) | 2 µg/mL (≈ 5.42 µM)
O=C1OC(COC(=O)c2ccsc2)C=C1c1cccc(Cl)c1 (stereo not drawn) [1EB, 4-(3-chlorophenyl)-5-oxo-2,5-dihydrofuran-2-ylmethyl thiophene-3-carboxylate] | 4 µg/mL (≈ 11.9 µM) | 2 µg/mL (≈ 5.97 µM) | 4 µg/mL (≈ 11.9 µM)
O=C1OC(COC(=O)c2ccsc2)C=C1c1cccc(Br)c1 (stereo not drawn) [1EC, 4-(3-bromophenyl)-5-oxo-2,5-dihydrofuran-2-ylmethyl thiophene-3-carboxylate] | 2 µg/mL (≈ 5.27 µM) | 1 µg/mL (≈ 2.64 µM) | 2 µg/mL (≈ 5.27 µM)

SMILES | MIC [1] | MIC [2] | MIC [3]
COc1ccc(C2=CC(COC(=O)c3ccsc3)OC2=O)cc1Br (stereo not drawn) [1EE, 4-(3-bromo-4-methoxyphenyl)-5-oxo-2,5-dihydrofuran-2-ylmethyl thiophene-3-carboxylate] | > 2 µg/mL | > 2 µg/mL | > 2 µg/mL
O=C1OC(COC(=O)c2cc(Br)c(Br)s2)C=C1c1ccc(Cl)c(Cl)c1 (stereo not drawn) [1FA, 4-(3,4-dichlorophenyl)-5-oxo-2,5-dihydrofuran-2-ylmethyl 4,5-dibromothiophene-2-carboxylate] | > 4 µg/mL | > 4 µg/mL | > 4 µg/mL
O=C1OC(COC(=O)c2cc(Br)c(Br)s2)C=C1c1cccc(Cl)c1 (stereo not drawn) [1FB, 4-(3-chlorophenyl)-5-oxo-2,5-dihydrofuran-2-ylmethyl 4,5-dibromothiophene-2-carboxylate] | 2 to 4 µg/mL (≈ 4.06 to 8.12 µM) | 1 to 2 µg/mL (≈ 2.03 to 4.06 µM) | 1 to 2 µg/mL (≈ 2.03 to 4.06 µM)
O=C1OC(COC(=O)c2cc(Br)c(Br)s2)C=C1c1cccc(Br)c1 (stereo not drawn) [1FC, 4-(3-bromophenyl)-5-oxo-2,5-dihydrofuran-2-ylmethyl 4,5-dibromothiophene-2-carboxylate] | 2 to 4 µg/mL (≈ 3.72 to 7.45 µM) | 1 to 2 µg/mL (≈ 1.86 to 3.72 µM) | 1 to 2 µg/mL (≈ 1.86 to 3.72 µM)
O=C(CCCl)OCC1C=C(c2ccc(Cl)c(Cl)c2)C(=O)O1 (stereo not drawn) [1GA, 4-(3,4-dichlorophenyl)-5-oxo-2,5-dihydrofuran-2-ylmethyl 3-chloropropionate] | 2 µg/mL (≈ 5.72 µM) | 2 µg/mL (≈ 5.72 µM) | 4 µg/mL (≈ 11.4 µM)
O=C(CCCl)OCC1C=C(c2cccc(Cl)c2)C(=O)O1 (stereo not drawn) [1GB, 4-(3-chlorophenyl)-5-oxo-2,5-dihydrofuran-2-ylmethyl 3-chloropropionate] | 2 µg/mL (≈ 6.35 µM) | 4 µg/mL (≈ 12.7 µM) | 2 µg/mL (≈ 6.35 µM)
O=C(CCCl)OCC1C=C(c2cccc(Br)c2)C(=O)O1 (stereo not drawn) [1GC, 4-(3-bromophenyl)-5-oxo-2,5-dihydrofuran-2-ylmethyl 3-chloropropionate] | 4 µg/mL (≈ 11.1 µM) | 2 µg/mL (≈ 5.56 µM) | 2 µg/mL (≈ 5.56 µM)
COc1ccc(C2=CC(COC(=O)CCCl)OC2=O)cc1Br (stereo not drawn) [1GE, 4-(3-bromo-4-methoxyphenyl)-5-oxo-2,5-dihydrofuran-2-ylmethyl 3-chloropropionate] | 4 to 8 µg/mL (≈ 10.3 to 20.5 µM) | 8 to 16 µg/mL (≈ 20.5 to 41.1 µM) | 4 to 8 µg/mL (≈ 10.3 to 20.5 µM)
O=C(CCCCl)OCC1C=C(c2ccc(Cl)c(Cl)c2)C(=O)O1 (stereo not drawn) [1HA, 4-(3,4-dichlorophenyl)-5-oxo-2,5-dihydrofuran-2-ylmethyl 4-chlorobutyrate] | 1 to 2 µg/mL (≈ 2.75 to 5.5 µM) | 1 to 2 µg/mL (≈ 2.75 to 5.5 µM) | 1 to 2 µg/mL (≈ 2.75 to 5.5 µM)
O=C(CCCCl)OCC1C=C(c2cccc(Cl)c2)C(=O)O1 (stereo not drawn) [1HB, 4-(3-chlorophenyl)-5-oxo-2,5-dihydrofuran-2-ylmethyl 4-chlorobutyrate] | 2 to 4 µg/mL (≈ 6.08 to 12.2 µM) | 1 to 2 µg/mL (≈ 3.04 to 6.08 µM) | 1 to 2 µg/mL (≈ 3.04 to 6.08 µM)
O=C(CCCCl)OCC1C=C(c2cccc(Br)c2)C(=O)O1 (stereo not drawn) [1HC, 4-(3-bromophenyl)-5-oxo-2,5-dihydrofuran-2-ylmethyl 4-chlorobutyrate] | 4 to 8 µg/mL (≈ 10.7 to 21.4 µM) | 1 to 2 µg/mL (≈ 2.68 to 5.35 µM) | 1 to 2 µg/mL (≈ 2.68 to 5.35 µM)
O=C(CCCCl)OCC1C=C(c2cccc(F)c2)C(=O)O1 (stereo not drawn) [1HD, 4-(3-fluorophenyl)-5-oxo-2,5-dihydrofuran-2-ylmethyl 4-chlorobutyrate] | 1 to 2 µg/mL (≈ 3.2 to 6.4 µM) | 1 to 2 µg/mL (≈ 3.2 to 6.4 µM) | 1 to 2 µg/mL (≈ 3.2 to 6.4 µM)
COc1ccc(C2=CC(COC(=O)CCCCl)OC2=O)cc1Br (stereo not drawn) [1HE, 4-(3-bromo-4-methoxyphenyl)-5-oxo-2,5-dihydrofuran-2-ylmethyl 4-chlorobutyrate] | > 4 µg/mL | > 4 µg/mL | > 4 µg/mL
COc1ccc(C2=CC(COC(=O)CCCCCl)OC2=O)cc1Br (stereo not drawn) [1IE, 4-(3-bromo-4-methoxyphenyl)-5-oxo-2,5-dihydrofuran-2-ylmethyl 5-chlorovalerate] | > 8 µg/mL | > 8 µg/mL | > 8 µg/mL
O=C1OC(COC(=O)c2cccc(I)c2)C=C1c1cccc(Cl)c1 (stereo not drawn) [1JB, 4-(3-chlorophenyl)-5-oxo-2,5-dihydrofuran-2-ylmethyl 3-iodobenzoate] | > 2 µg/mL | > 2 µg/mL | > 2 µg/mL
O=C1OC(COC(=O)c2cccc(I)c2)C=C1c1cccc(Br)c1 (stereo not drawn) [1JC, 4-(3-bromophenyl)-5-oxo-2,5-dihydrofuran-2-ylmethyl 3-iodobenzoate] | > 4 µg/mL | > 4 µg/mL | 2 to 4 µg/mL (≈ 4.01 to 8.01 µM)
COc1ccc(C2=CC(COC(=O)c3cccc(I)c3)OC2=O)cc1Br (stereo not drawn) [1JE, 4-(3-bromo-4-methoxyphenyl)-5-oxo-2,5-dihydrofuran-2-ylmethyl 3-iodobenzoate] | > 2 µg/mL | > 2 µg/mL | > 2 µg/mL
O=C1OC(COC(=O)c2ccc[nH]2)C=C1c1cccc(Cl)c1 (stereo not drawn) [1KB, 4-(3-chlorophenyl)-5-oxo-2,5-dihydrofuran-2-ylmethyl pyrrole-2-carboxylate] | 1 to 2 µg/mL (≈ 3.15 to 6.29 µM) | 1 to 2 µg/mL (≈ 3.15 to 6.29 µM) | 0.5 to 1 µg/mL (≈ 1.57 to 3.15 µM)
O=C1OC(COC(=O)c2ccc[nH]2)C=C1c1cccc(Br)c1 (stereo not drawn) [1KC, 4-(3-bromophenyl)-5-oxo-2,5-dihydrofuran-2-ylmethyl pyrrole-2-carboxylate] | 2 to 4 µg/mL (≈ 5.52 to 11 µM) | 1 to 2 µg/mL (≈ 2.76 to 5.52 µM) | 1 to 2 µg/mL (≈ 2.76 to 5.52 µM)
